This passage reports T1 relaxation results from patent publication US9272056B2, “Method to produce hyperpolarised carboxylates” (GE Healthcare AS, priority 2005, dated 2016).

The data set is described as follows: T1 relaxation in human full blood. Format: physicochemical. The settings on record: human full blood at 37° C. From the text:
The amount of alanine, bicarbonate and lactate is dependent on the metabolic status of the tissue under investigation.

Consider `CC(=O)[13C](=O)O` [^13C-pyruvate], for which the T1 relaxation result is given as “about 42 s”.
